What was measured:
isoprenaline tachycardia = test: β-blocking action: inhibition of isoprenaline tachycardia in awake rabbits; format: in vivo, rabbit; conditions: for ED50: Oryctolagus cuniculus, iv, 50% inhibiting dosage, isoprenaline tachycardia, purity >99.4%, read-out: β-blockade ED50%; for β-blocking properties: in words
[1] = tested on: blood vessels (blood pressure); test: vasodilation: direct blood pressure lowering after a single i.v. administration in awake spontaneously hypertonic rats (SHR); format: in vivo, rat (spontaneously hypertonic; conditions: for ED (30 mmHg): Rattus norvegicus, iv, dosage for lowering of blood pressure by 30 mm.Hg, awake SHR, single i.v. administration, purity >99.4%
Description: (measured as direct blood pressure lowering after a single administration)
In awake, spontaneously hypertonic rats (SHR), catheters were implanted in the arteria femoralis and the vena jugularis. Via the veins, there were injected appropriate dosages of the enantiomers (R-carvedilol and S-carvedilol in dosages of 0.03; 0.1; 0.3; 1.0 and 3 mg/kg. i.v.) and the arterial blood pressure lowering was determined via the arterial pressure catheter (as an expression of the vasodilation). As a measure of the antihypertensive effect, there were calculated the dosages for lowering of the blood pressure by 30 mm.Hg.

| SMILES | ED50 (isoprenaline tachycardia; awake rabbits, i.v.) | β-blocking properties (isoprenaline tachycardia) | β-blocking properties (isoprenaline tachycardia; listed as Example 8) | ED (30 mmHg) [1] | dosage for blood pressure lowering of 30 mm.Hg in comparison to β-blockade (times higher) ([1]; S-carvedilol, ED-30mmHg vs β-blockade ED50%) | β-blockade: difference factor of the dosages of R- and S-carvedilol (isoprenaline tachycardia; ratio of ED50% R-carvedilol to S-carvedilol, i.v., awake rabbits) | vasodilation: difference factor of the dosages of R- and S-carvedilol ([1]; ratio of ED-30mmHg R-carvedilol to S-carvedilol, i.v., SHR) |
| --- | --- | --- | --- | --- | --- | --- | --- |
| COc1ccccc1OCCNC[C@H](O)COc1cccc2[nH]c3ccccc3c12 [S-carvedilol, S-(-)-(1-Carbazol-4-yloxy)-3-[2-(2-methoxyphenoxy)]ethylaminopropan-2-ol] | 0.025 mg/kg | practically only S-carvedilol can be regarded as being a β-blocker | displays β-blocking properties | 0.27 mg/kg | about 10 times |  |  |
| COc1ccccc1OCCNC[C@@H](O)COc1cccc2[nH]c3ccccc3c12 [R-carvedilol, R-(+)-(1-Carbazol-4-yloxy)-3-[2-(2-methoxyphenoxy)]ethylaminopropan-2-ol] | 3.98 mg/kg |  |  | 2.96 mg/kg |  | 160 | 11 |

From patent US4697022A, “Process for the preparation of optically-active carbazole derivatives, new R- and S-carbazole derivatives and pharmaceutical compositions containing these compounds” (Boehringer Mannheim GmbH, priority 1983, dated 1987)
